Key:
Streptococcus pyogenes = experiment: agar diffusion method, zones of inhibition; type: cell-based; design: key to Growth Inhibitory Activity: +++ represents very strong growth inhibition; ++ represents strong growth inhibition; + represents mild growth inhibition; − represents no growth inhibition
Description: (§1) Bacteriocin activity is measured using an agar diffusion method (see, Gilbreth & Somkuti (2005)). Cultures of S. thermophilus strain 110 (NRRL B59671) and S. thermophilus strain LMD-9 are grown at 37° C. to an OD660 between 0.8 and 1.0 in 10 ml tryptone-yeast extract medium (Somkuti & Steinberg 1986) formulated with lactose (TYL) or glucose (TYG), or M17 medium (Becton Dickinson Co., Sparks, Md.) formulated with glucose (M17G) or lactose (M17L). Cells are pelleted by high-speed centrifugation for collection of cell-free supernatants (CFS). CFS (˜50 μl) are loaded into precast wells in an agar medium seeded with the target bacteria (0.5% v/v). Bacterial targets included: S. thermophilus strain ST113 in TYL, P. acidilactici in MRS (Becton Dickinson Co., Sparks, Md.), and L. innocua in BHI (Beckton Dickinson Co., Sparks, Md.). Plates are allowed to equilibrate overnight at 4° C., and then are incubated at 37° C. for 8 hours and are examined for the appearance of zones of inhibition.
(§2) S. thermophilus strain 110 (NRRL B59671) are grown overnight in tryptone-yeast extract-lactose (TYL) medium. The overnight culture is diluted in fresh TYL medium and grown for 7 or 24 hours. At each time point, a 1 ml sample is collected. Bacterial cells are removed from the 1 ml samples by centrifugation; and the cell free supernatants (CFS) are tested for antimicrobial activity using an agar diffusion method (see Gilbreth and Somkuti (2005) and Example 2 supra). Target agar plates are prepared by inoculating molten microbiological medium with the overnight growth of susceptible bacteria (0.5% v/v; 250 μl of culture into 50 ml of medium). The inoculated molten agar is poured into square dishes and left to harden at room temperature (approximately 10 minutes). Wells are made in the solidified agar plates using a sterile glass Pasteur pipette, and each well is filled with 50 μl of CFS samples. The agar plates are stored overnight at 4° C. to allow for diffusion of the CFS into the agar medium. The agar plates with loaded wells are then incubated at 37° C. to allow for growth of the target bacterium. The agar plates are monitored for growth of the target bacterium (agar medium becomes turbid), and the presence of clear zones around wells. […] Furthermore, antimicrobial activity is shown to be associated with a low-molecular weight peptide based on gel electrophoretic analysis (Gilbreth & Somkuti 2005). Agar diffusion assays are repeated a minimum of three times.

Streptococcus mutans = experiment: agar diffusion method, zones of inhibition; type: cell-based; design: key to Growth Inhibitory Activity: +++ represents very strong growth inhibition; ++ represents strong growth inhibition; + represents mild growth inhibition; − represents no growth inhibition
Description: as §1, §2

Propionibacterium acnes = experiment: agar diffusion method, zones of inhibition; type: cell-based; design: key to Growth Inhibitory Activity: +++ represents very strong growth inhibition; ++ represents strong growth inhibition; + represents mild growth inhibition; − represents no growth inhibition
Description: S. thermophilus strain 110 (NRRL B59671) are grown overnight in tryptone-yeast extract-lactose (TYL) medium. The overnight culture is diluted in fresh TYL medium and grown for 7 or 24 hours. At each time point, a 1 ml sample is collected. Bacterial cells are removed from the 1 ml samples by centrifugation; and the cell free supernatants (CFS) are tested for antimicrobial activity using an agar diffusion method (see Gilbreth and Somkuti (2005) and Example 2 supra). Target agar plates are prepared by inoculating molten microbiological medium with the overnight growth of susceptible bacteria (0.5% v/v; 250 μl of culture into 50 ml of medium). The inoculated molten agar is poured into square dishes and left to harden at room temperature (approximately 10 minutes). Wells are made in the solidified agar plates using a sterile glass Pasteur pipette, and each well is filled with 50 μl of CFS samples. The agar plates are stored overnight at 4° C. to allow for diffusion of the CFS into the agar medium. The agar plates with loaded wells are then incubated at 37° C. to allow for growth of the target bacterium. The agar plates are monitored for growth of the target bacterium (agar medium becomes turbid), and the presence of clear zones around wells. […]

Pediococcus acidilactici [1] = details: Gilbreth and Somkuti (2005); positive control; cited from earlier work
Streptococcus uberus = experiment: agar diffusion method, zones of inhibition; type: cell-based; design: key: +++ represents very strong growth inhibition; ++ represents strong growth inhibition; + represents mild growth inhibition; − represents no growth inhibition; details: 50 μl CFS of S. thermophilus strain 110 grown in TYL, 7 h and 24 h samples identical; target in TYL
Description: as §2

[2] = tested on: Lactobacillus acidophilus; experiment: agar diffusion method, zones of inhibition; type: cell-based; design: key: +++ represents very strong growth inhibition; ++ represents strong growth inhibition; + represents mild growth inhibition; − represents no growth inhibition; details: 50 μl CFS of S. thermophilus strain 110 grown in TYL, 7 h and 24 h samples identical; target in MRS
Description: as §2

Streptococcus agalactiae = experiment: agar diffusion method, zones of inhibition; type: cell-based; design: key: +++ represents very strong growth inhibition; ++ represents strong growth inhibition; + represents mild growth inhibition; − represents no growth inhibition; details: 50 μl CFS of S. thermophilus strain 110 grown in TYL, 7 h and 24 h samples identical; target in TYL
Description: as §2

[3] = tested on: Streptococcus dysgalactiae; experiment: agar diffusion method, zones of inhibition; type: cell-based; design: key: +++ represents very strong growth inhibition; ++ represents strong growth inhibition; + represents mild growth inhibition; − represents no growth inhibition; details: 50 μl CFS of S. thermophilus strain 110 grown in TYL, 7 h and 24 h samples identical; target in TYL
Description: as §2

Pediococcus acidilactici [4] = experiment: agar diffusion method, zones of inhibition; type: cell-based; design: key: +++ represents very strong growth inhibition; ++ represents strong growth inhibition; + represents mild growth inhibition; − represents no growth inhibition; details: 50 μl CFS of S. thermophilus strain 110 grown in TYL, 7 h and 24 h samples identical; target in MRS
Description: as §1
(§3) S. thermophilus strain 110 (NRRL B59671) are grown overnight in tryptone-yeast extract-lactose (TYL) medium. The overnight culture is diluted in fresh TYL medium and grown for 7 or 24 hours. At each time point, a 1 ml sample is collected. […] The agar plates are monitored for growth of the target bacterium (agar medium becomes turbid), and the presence of clear zones around wells. […]

Listeria innocua = experiment: agar diffusion method, zones of inhibition; type: cell-based; design: key: +++ represents very strong growth inhibition; ++ represents strong growth inhibition; + represents mild growth inhibition; − represents no growth inhibition; details: 50 μl CFS of S. thermophilus strain 110 grown in TYL, 7 h and 24 h samples identical; target in BHI
Description: as §1, §3

Pediococcus acidilactici [5] = experiment: antimicrobial activity of recombinant BlpU, SDS-PAGE gel overlay method; type: cell-based; details: expressed in E. coli BL21 pGEX-6P-1/blpU; before or after Factor Xa cleavage of the GST tag; FIG. 6
Text: The nucleic acid sequence (162 base pairs; SEQ ID NO: 37) corresponding to the mature BlpU peptide (not including the 23 amino acid leader peptide) is amplified from the S. thermophilus strain 110 (NRRL-B59671) chromosome by PCR with the primers: forward: […] (BamHI—recognition site underlined; nucleotides encoding the Factor Xa recognition sequence (isoleucine-glutamic acid-glycine-arginine) are italicized) (SEQ ID NO: 34) and reverse: […] (XhoI—recognition site underlined) (SEQ ID NO: 35). […] The DNA fragment is subsequently cloned into the pGEX 6P-1 plasmid (GE Healthcare Life Sciences, Piscataway, N.J.) at the BamHI and XhoI sites. The resulting plasmid (pGEX 6P-1/blpU) encodes for a fusion protein with the glutathione S transferase (GST) tag on the N-terminus of BlpU, and expression is under control of an isopropyl β-D-1-thiogalactopyranoside (IPTG) inducible promoter. The plasmid is transformed into E. coli strain BL21 for recombinant expression of the fusion protein. […] The eluent from the dialysis bag is recovered and analyzed by SDS-PAGE for the presence of a ˜31 kDa fusion protein. […] The cleaved product is analyzed by SDS-PAGE for the presence of BlpU (silver nitrate staining) and antimicrobial activity against Pediococcus acidilactici (gel overlay method; Gilbreth and Somkuti, 2005).

[6] = 50 μl CFS of S. thermophilus strain 110 grown in TYL, 7 h and 24 h samples identical, target in BHI

Substance: thermophilin 110: mature bacteriocin produced by S. thermophilus strain 110, amino acids 24-76 of SEQ ID NO: 1 (SEQ ID NO: 36), about 5 kDa (GCSWGGFAKQGVATGVGNGLRLGIKTRTWQGAVAGAAGGAIVGGVGYGATCWW; listed as Streptococcus thermophilus)
- Growth Inhibitory Activity (Streptococcus pyogenes; [6]): +++
- growth inhibitory activity against S. pyogenes (in words) (Streptococcus pyogenes; text summary of Table 4): very strong growth inhibitory activity
- Growth Inhibitory Activity (Streptococcus mutans; 50 μl CFS of S. thermophilus strain 110 grown in TYL, 7 h and 24 h samples identical, target in Todd Hewitt): ++
- growth inhibitory activity against S. mutans (in words) (Streptococcus mutans; text summary of Table 4): strong growth inhibitory activity
- Growth Inhibitory Activity (Propionibacterium acnes; [6]): ++
- growth inhibitory activity against P. acnes (in words) (Propionibacterium acnes; text summary of Table 4): strong growth inhibitory activity
- zones of inhibition against P. acidilactici in prior studies (Pediococcus acidilactici [1]): very strong zones of inhibition
- Growth Inhibitory Activity (Streptococcus uberus): +
- Growth Inhibitory Activity [2]: +++
- Growth Inhibitory Activity (Streptococcus agalactiae): −
- Growth Inhibitory Activity [3]: −
- Growth Inhibitory Activity (Pediococcus acidilactici [4]): +++
- Growth Inhibitory Activity (Listeria innocua): +
- antimicrobial activity against P. acidilactici (Pediococcus acidilactici [5]): inhibition zone

From patent US20160368953A1, “BACTERIOCIN WITH NOVEL ACTIVITY” (The United States of America, as represented by the …, priority 2015, published 2016)
